Experimental data published in paper PMC10331583, “Control of fibrosis with enhanced safety via asymmetric inhibition of prolyl‐tRNA synthetase 1” (EMBO Molecular Medicine, 2023).
Values joined by “and” are separate entries in the source; they are usually repeats but may differ in a detail not shown here. Equal entries are not always repeated. Where two headings read alike, the source gives them in different places.

Columns and labels:
[1] = tested on: TNT Quick Coupled Transcription/Translation System (luciferase synthesis); format: biochemical
WI‐26 VA4 cells [2] = assay: Collagen ELISA (secreted pro‐collagen I)
Description: WI‐26 VA4 cells were seeded at 3.5 × 10^4 cells/well on 24 well plates. After 24 h, the cells were starved of serum for 6 h. Then, the cells were incubated with the indicated concentrations of compounds in the presence of TGF‐β (2 ng/ml) (R&D systems, 240‐B‐002) for 72 h. The supernatant of the cells was collected and centrifuged at 500 g for 5 min to remove cell debris. Then, the level of pro‐collagen I in the supernatant was determined using Human Pro‐collagen I alpha 1 DuoSet ELISA (R&D systems, DY6220‐05) and DuoSet ELISA Ancillary Reagent Kit 2 (R&D systems, DY008) following the manufacturer's instructions.

WI‐26 VA4 cells [3] = assay: Puromycin incorporation assay; format: cell-based, human; details: for activity at 0.003 µM: WI26VA4, 3 nM; for activity at 0.01 µM: WI26VA4, 10 nM; for activity at 0.03 µM: WI26VA4, 30 nM; for activity at 0.1 µM: WI26VA4, 100 nM; for activity at 0.3 µM: WI26VA4, 300 nM; for activity at 0.5 µM: WI26VA4, 500 nM; for activity at 1 µM: WI26VA4, 1000 nM
Description: After being rinsed with cold PBS twice, the cells were collected and resuspended in 200 μl of the carbonate bicarbonate buffer (Sigma Aldrich, C3041‐50CAP) with protease inhibitor. The cell lysates were obtained by sonication and centrifugation at 20,000 g for 15 min at 4°C. After protein quantification using a Pierce™ BCA Protein Assay Kit (Thermo Fisher Scientific, 23225), 400 ng of the proteins was coated to ELISA plates for 18 h at 4°C. […] The plates were rinsed with the washing buffer for three times after each antibody incubation step. […] The amount of puromycin incorporated in proteins was determined by measuring the absorbance at 450 nm (reference wavelength at 620 nm). Experimental values marked in red with strikethrough text in the Figure Source Data file were excluded from the analysis. These values were determined by considering the values of biological and technical replicates under the same condition, as well as the values at the former and later chemical concentrations.

[4] = log(inhibitor) vs. response, variable slope (four parameters), concentration in nM
[5] = log(inhibitor) vs. response, variable slope (four parameters)
[6] = Homo sapiens, read-out: Puromycin, % of control, average
[7] = Homo sapiens, read-out: Puromycin, % of control, single replicate

SMILES: Cc1c(Br)cnc2c1ncn2CC(=O)C[C@H]1NCCC[C@@H]1O [DWN11761]
- TNT-luciferase % of control ([1]; 6000 nM, Experiment #1, replicates, 6 µM): 0.05 % of control and 0.047 % of control and 0.06 % of control
- TNT-luciferase % of control ([1]; 6000 nM, Experiment #2, replicates, 6 µM): 0.15 % of control and 0.14 % of control (2×)
- TNT-luciferase % of control ([1]; 6000 nM, Experiment #3, replicates, 6 µM): 0.14 % of control (2×) and 0.12 % of control
- TNT-luciferase % of control, average ([1]; 6000 nM): 0.11 % of control
- TNT-luciferase % of control ([1]; 20000 nM, Experiment #1, replicates, 20 µM): -0.0091 % of control and -0.014 % of control and -0.00199 % of control
- TNT-luciferase % of control ([1]; 20000 nM, Experiment #2, replicates, 20 µM): 0.00206 % of control and -0.00211 % of control and -0.00412 % of control
- TNT-luciferase % of control ([1]; 20000 nM, Experiment #3, replicates, 20 µM): 0.02 % of control and -0.0067 % of control and 0.00433 % of control
- TNT-luciferase % of control, average ([1]; 20000 nM): -0.00128 % of control
- TNT-luciferase LogIC50 (best-fit value) [1, 4]: 2.775
- IC50 ([1]; log(inhibitor) vs. response, variable slope (four parameters), unit from head concentration (nM), read-out: TNT-luciferase IC50 (best-fit value)): 595 nM
- Collagen, % of control (single replicates per experiment) (WI‐26 VA4 cells [2]; 1 nM, 0.001 µM): 99.09 % of control and 89.14 % of control and 102.78 % of control and 94.15 % of control and 107.84 % of control
- Collagen, % of control (single replicates per experiment) (WI‐26 VA4 cells [2]; 3 nM, 0.003 µM): 120.43 % of control and 98.90 % of control and 84.42 % of control and 95.43 % of control and 97.10 % of control and 104.96 % of control
- Collagen, % of control (single replicates per experiment) (WI‐26 VA4 cells [2]; 30 nM, 0.03 µM): 79.96 % of control and 82.37 % of control
- CC50/collagen IC50 (WI‐26 VA4 cells [2]; Fig 5E): 5.47
- IC50 (WI‐26 VA4 cells [2]; Homo sapiens, WI26VA4, read-out: Collagen IC50 (best-fit value), log(inhibitor) vs. response, variable slope (four parameters) (converted)): 53.7 nM
- activity at 0.001 µM (WI‐26 VA4 cells [2]; Homo sapiens, WI26VA4, read-out: Collagen, % of control (single replicates per experiment), 1 nM): 109%
- activity at 0.1 µM (WI‐26 VA4 cells [2]; Homo sapiens, WI26VA4, read-out: Collagen, % of control (single replicates per experiment), 100 nM): 20.2%
- activity at 0.3 µM (WI‐26 VA4 cells [2]; Homo sapiens, WI26VA4, read-out: Collagen, % of control (single replicates per experiment), 300 nM): 3.63%
- activity at 0.001 µM (WI‐26 VA4 cells [2]; Homo sapiens, WI26VA4, read-out: Collagen, % of control, average, 1 nM, average): 100%
- activity at 0.003 µM (WI‐26 VA4 cells [2]; Homo sapiens, WI26VA4, read-out: Collagen, % of control, average, 3 nM, average): 100%
- activity at 0.01 µM (WI‐26 VA4 cells [2]; Homo sapiens, WI26VA4, read-out: Collagen, % of control, average, 10 nM, average): 101%
- activity at 0.03 µM (WI‐26 VA4 cells [2]; Homo sapiens, WI26VA4, read-out: Collagen, % of control, average, 30 nM, average): 80.4%
- activity at 0.1 µM (WI‐26 VA4 cells [2]; Homo sapiens, WI26VA4, read-out: Collagen, % of control, average, 100 nM, average): 20.6%
- activity at 0.3 µM (WI‐26 VA4 cells [2]; Homo sapiens, WI26VA4, read-out: Collagen, % of control, average, 300 nM, average): 3.18%
- activity at 1 µM (WI‐26 VA4 cells [2]; Homo sapiens, WI26VA4, read-out: Collagen, % of control, average, 1000 nM, average): 1.53%
- activity at 3 µM (WI‐26 VA4 cells [2]; Homo sapiens, WI26VA4, read-out: Collagen, % of control, average, 3000 nM, average): 1.46%
- Collagen HillSlope (best-fit value) (WI‐26 VA4 cells [2]; [5]): -2.337
- Collagen LogIC50 (best-fit value) (WI‐26 VA4 cells [2]; [4]): 1.73
- Relative (CC50)/(collagen IC50) (WI‐26 VA4 cells [2]; relative to HF, Fig 5E): 1.63
- Puromycin, % of control, single replicate (WI‐26 VA4 cells [3]; 3 nM, 0.003 µM): 104.76 % of control and 100.60 % of control and 105.06 % of control and 105.49 % of control and 105.21 % of control and 111.96 % of control and 104.24 % of control
- Puromycin, % of control, single replicate (WI‐26 VA4 cells [3]; 10 nM, 0.01 µM): 99.99 % of control and 99.81 % of control and 108.66 % of control and 104.16 % of control and 106.55 % of control and 105.60 % of control and 106.56 % of control
- Puromycin, % of control, single replicate (WI‐26 VA4 cells [3]; 30 nM, 0.03 µM): 101.89 % of control and 99.32 % of control and 110.82 % of control and 110.04 % of control and 108.90 % of control and 103.15 % of control and 106.42 % of control
- Puromycin, % of control, single replicate (WI‐26 VA4 cells [3]; 100 nM, 0.1 µM): 112.55 % of control and 117.55 % of control and 127.48 % of control and 125.28 % of control and 125.52 % of control and 127.16 % of control and 126.25 % of control
- Puromycin, % of control, single replicate (WI‐26 VA4 cells [3]; 300 nM, 0.3 µM): 109.98 % of control and 112.11 % of control and 119.25 % of control and 120.23 % of control and 124.85 % of control and 125.66 % of control and 106.56 % of control
- Puromycin, % of control, single replicate (WI‐26 VA4 cells [3]; 500 nM, 0.5 µM): 54.77 % of control and 53.35 % of control and 56.10 % of control and 56.57 % of control and 57.43 % of control and 59.14 % of control and 54.96 % of control
- Puromycin, % of control, single replicate (WI‐26 VA4 cells [3]; 1000 nM, 1 µM): 28.04 % of control and 30.25 % of control and 30.46 % of control and 30.97 % of control and 31.52 % of control and 29.73 % of control and 28.78 % of control
- Puromycin, % of control, single replicate (WI‐26 VA4 cells [3]; 3000 nM, 3 µM): 0.34 % of control and -0.19 % of control and -0.45 % of control and 0.86 % of control and 1.02 % of control and 0.90 % of control and 0.51 % of control and -0.71 % of control
- Puromycin, % of control, single replicate (WI‐26 VA4 cells [3]; 10000 nM, 10 µM): 0.48 % of control and -0.27 % of control and -0.54 % of control and 1.84 % of control and 0.67 % of control and 0.24 % of control and 0.33 % of control and 0.60 % of control
- Puromycin, % of control, single replicate (WI‐26 VA4 cells [3]; 100000 nM, 100 µM): 0.17 % of control and 0.43 % of control and -0.14 % of control and 0.04 % of control and 0.27 % of control and -0.04 % of control and 0.92 % of control and 0.65 % of control
- activity at 0.003 µM (WI‐26 VA4 cells [3]; [6]): 105%
- activity at 0.003 µM (WI‐26 VA4 cells [3]; [7]): 104%
- activity at 0.01 µM (WI‐26 VA4 cells [3]; [6]): 104%
- activity at 0.01 µM (WI‐26 VA4 cells [3]; [7]): 101%
- activity at 0.03 µM (WI‐26 VA4 cells [3]; [6]): 105%
- activity at 0.03 µM (WI‐26 VA4 cells [3]; [7]): 103%
- activity at 0.1 µM (WI‐26 VA4 cells [3]; [6]): 122%
- activity at 0.1 µM (WI‐26 VA4 cells [3]; [7]): 114%
- activity at 0.3 µM (WI‐26 VA4 cells [3]; [6]): 117%
- activity at 0.3 µM (WI‐26 VA4 cells [3]; [7]): 115%
- activity at 0.5 µM (WI‐26 VA4 cells [3]; [6]): 55.6%
- activity at 0.5 µM (WI‐26 VA4 cells [3]; [7]): 52.3%
- activity at 1 µM (WI‐26 VA4 cells [3]; [6]): 29.5%
- activity at 1 µM (WI‐26 VA4 cells [3]; [7]): 26.2%
- activity at 3 µM (WI‐26 VA4 cells [3]; Homo sapiens, WI26VA4, 3000 nM, read-out: Puromycin, % of control, average): 0.29%
- activity at 10 µM (WI‐26 VA4 cells [3]; Homo sapiens, WI26VA4, 10000 nM, read-out: Puromycin, % of control, average): 0.42%
- activity at 30 µM (WI‐26 VA4 cells [3]; Homo sapiens, WI26VA4, 30000 nM, read-out: Puromycin, % of control, average): -0.13%
- activity at 100 µM (WI‐26 VA4 cells [3]; Homo sapiens, WI26VA4, 100000 nM, read-out: Puromycin, % of control, average): 0.29%
- IC50 (WI‐26 VA4 cells [3]; Homo sapiens, WI26VA4, log(inhibitor) vs. response, variable slope (four parameters), read-out: Puromycin, IC50 (best-fit value)): 581 nM
- Puromycin, HillSlope (best-fit value) (WI‐26 VA4 cells [3]; [5]): -3.124
- Puromycin, LogIC50 (best-fit value) (WI‐26 VA4 cells [3]; [4]): 2.764
